Laboratory results as given in patent US20240368181A1, “QUINOXALINE DERIVATIVES AND USES THEREOF” (Black Diamond Therapeutics, Inc., priority 2021, published 2024).

Assays:
Assay type in all cases: cell-based
[1] = test system: SNU-16 (FGFR2-amplification) cells; assay: cell proliferation assay (CellTiterGlo), SNU-16 cells; details: Homo sapiens, 72 hours
In short: (§1)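 Suspended cells plated; DMSO or compound dose range added; intracellular ATP read by CellTiterGlo luminescence; IC50 vs vehicle-normalized viability.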

[2] = test system: DMS-114 (FGFR1 overexpression) cells; assay: cell proliferation assay (CellTiterGlo), DMS-114 cells; details: Homo sapiens
In short: as §1

[3] = test system: RT-112 (FGFR3-Tacc3 fusion) cells; assay: cell proliferation assay (CellTiterGlo), RT-112 cells; details: Homo sapiens, RT-112, RT112 cells, 72 hours
In short: as §1

[4] = test system: UM-UC-14 (FGFR3-S249C) cells; assay: cell proliferation assay (CellTiterGlo), UM-UC-14 cells
In short: as §1

| SMILES | IC50 [1] [nM] | IC50 ([2]; DMS-114, 72 h) [nM] | IC50 [3] [nM] | IC50 ([4]; UMUC14, 72 h) [nM] | IC50 ([2]; 72 hours) [nM] | IC50 ([4]; UMUC14, 72 hours) [nM] |
| --- | --- | --- | --- | --- | --- | --- |
| Clc1c(Oc2ccn3cncc3c2)ccc2ncc(-c3cnn(CC4CCNCC4)c3)nc12 [Compound 341] | ≥ 400 | ≥ 400 | ≥ 400 | ≥ 400 | – | – |
| Cc1nc2ccc(Oc3ccc4ncc(-c5cnn(C6CC7CC6CN7C(C)C)c5)nc4c3Cl)cc2[nH]1 (stereo not drawn) [Compound 342] | 20 to 100 | ≥ 400 | 20 to 100 | 20 to 100 | – | – |
| Cc1nc2ccc(Oc3ccc4ncc(-c5cnn(CC67COC(C6)C7)c5)nc4c3Cl)cc2[nH]1 [Compound 343] | < 20 | ≥ 400 | < 20 | 20 to 100 | – | – |
| Cc1nc2ccc(Oc3ccc4ncc(-c5cnn(CC6CN6)c5)nc4c3Cl)cc2[nH]1 (stereo not drawn) [Compound 344] | 100 to 400 | – | 100 to 400 | – | ≥ 400 | 100 to 400 |
| Cc1cc2cc(Oc3ccc4ncc(-c5cnn(CC6CCN(C)CC6)c5)nc4c3Cl)ccn2n1 [Compound 345] | ≥ 400 | ≥ 400 | ≥ 400 | ≥ 400 | – | – |
| Cc1nc2ccc(Oc3ccc4ncc(-c5cnn(C6CC7(C6)OCCO7)c5)nc4c3Cl)cc2[nH]1 [Compound 346] | 20 to 100 | ≥ 400 | 20 to 100 | 20 to 100 | – | – |
| C=CCn1cc(-c2cnc3ccc(Oc4ccc5nc(C)[nH]c5c4)c(Cl)c3n2)cn1 [Compound 347] | 20 to 100 | ≥ 400 | 20 to 100 | 100 to 400 | – | – |
| Cc1nc2ccc(Oc3ccc4ncc(-c5cnn(CC(=O)NCCO)c5)nc4c3Cl)cc2[nH]1 [Compound 348] | ≥ 400 | ≥ 400 | 100 to 400 | ≥ 400 | – | – |
| Cc1nc2cc(Oc3ccc4ncc(-c5cnn(CC6(O)CCNCC6)c5)nc4c3Cl)ccc2[nH]1 [Compound 349] | ≥ 400 | ≥ 400 | ≥ 400 | ≥ 400 | – | – |
| Cc1nc2ccc(Oc3ccc4ncc(-c5cnn(CCNCCO)c5)nc4c3Cl)cc2[nH]1 [Compound 350] | 100 to 400 | ≥ 400 | 20 to 100 | 100 to 400 | – | – |
| Cc1nc2ccc(Oc3ccc4ncc(-c5cnn(C6CC7CC6CN7C)c5)nc4c3Cl)cc2[nH]1 (stereo not drawn) [Compound 351] | 20 to 100 | 100 to 400 | 20 to 100 | 20 to 100 | – | – |
| Cc1nc2ccc(Oc3ccc4ncc(-c5cnn(CC6(C)COC6)c5)nc4c3Cl)cc2[nH]1 [Compound 352] | ≥ 400 | ≥ 400 | ≥ 400 | ≥ 400 | – | – |
| Cc1nc2ccc(Oc3ccc4ncc(-c5cnn(C6CC7CC6CN7)c5)nc4c3Cl)cc2[nH]1 (stereo not drawn) [Compound 353] | 20 to 100 | ≥ 400 | 20 to 100 | 20 to 100 | – | – |
| Cc1nc2ccc(Oc3ccc4ncc(-c5cnn(CC6CCN(C(N)=O)CC6)c5)nc4c3Cl)cc2[nH]1 [Compound 354] | 20 to 100 | 100 to 400 | < 20 | 20 to 100 | – | – |
| Cc1nc2ccc(Oc3ccc4ncc(-c5cnn([C@H]6CC[C@H](N7CCC7)CC6)c5)nc4c3Cl)cc2[nH]1 [Compound 355] | 20 to 100 | 100 to 400 | 20 to 100 | 20 to 100 | – | – |
| Cc1nc2ccc(Oc3ccc4ncc(-c5cnn([C@H]6CC[C@@H](N7CCC7)CC6)c5)nc4c3Cl)cc2[nH]1 [Compound 356] | 20 to 100 | 100 to 400 | 20 to 100 | 20 to 100 | – | – |
| Cc1nc2ccc(Oc3ccc4ncc(-c5cnn(CC6(C)CCOC6)c5)nc4c3Cl)cc2[nH]1 (stereo not drawn) [Compound 357] | 20 to 100 | ≥ 400 | 20 to 100 | 20 to 100 | – | – |
| Cc1nc2ccc(Oc3ccc4ncc(-c5cnn(C6CCC(F)(F)CC6)c5)nc4c3Cl)cc2[nH]1 [Compound 358] | 20 to 100 | ≥ 400 | 100 to 400 | 100 to 400 | – | – |

| SMILES | IC50 [1] [nM] | IC50 ([2]; DMS-114, 72 h) [nM] | IC50 [3] [nM] | IC50 ([4]; UMUC14, 72 h) [nM] | IC50 ([2]; 72 hours) [nM] | IC50 ([4]; UMUC14, 72 hours) [nM] |
| --- | --- | --- | --- | --- | --- | --- |
| Cc1nc2ccc(Oc3ccc4ncc(-c5cnn(C(C)(C)CO)c5)nc4c3Cl)cc2[nH]1 [Compound 359] | 20 to 100 | ≥ 400 | 20 to 100 | 20 to 100 | – | – |
| Cc1nc2ccc(Oc3ccc4ncc(-c5cnn([C@H]6CCN(C7COC7)C[C@@H]6F)c5)nc4c3Cl)cc2[nH]1 [Compound 360] | 20 to 100 | ≥ 400 | 20 to 100 | 20 to 100 | – | – |
| Cc1nc2ccc(Oc3ccc4ncc(-c5cnn([C@@H]6C[C@H]7CC[C@@H](C6)N7)c5)nc4c3Cl)cc2[nH]1 [Compound 361] | 100 to 400 | 100 to 400 | 20 to 100 | 20 to 100 | – | – |
| Cc1nc2ccc(Oc3ccc4ncc(-c5cnn([C@H]6C[C@H]7CC[C@@H](C6)N7)c5)nc4c3Cl)cc2[nH]1 [Compound 362] | 20 to 100 | 100 to 400 | 20 to 100 | 20 to 100 | – | – |
| Cc1nc2ccc(Oc3ccc4ncc(-c5cnn([C@@H]6C[C@H]7CC[C@@H](C6)N7C)c5)nc4c3Cl)cc2[nH]1 [Compound 363] | 20 to 100 | ≥ 400 | 20 to 100 | 20 to 100 | – | – |
| Cc1nc2ccc(Oc3ccc4ncc(-c5cnn([C@H]6C[C@H]7CC[C@@H](C6)N7C)c5)nc4c3Cl)cc2[nH]1 [Compound 364] | 20 to 100 | 100 to 400 | < 20 | < 20 | – | – |
| Cc1nc2ccc(Oc3ccc4ncc(-c5cnn(CC6C7COCC76)c5)nc4c3Cl)cc2[nH]1 (stereo not drawn) [Compound 365] | 20 to 100 | ≥ 400 | 20 to 100 | 20 to 100 | – | – |
| Cc1nc2ccc(Oc3ccc4ncc(-c5cnn(CC6CCC(S(C)(=O)=O)CC6)c5)nc4c3Cl)cc2[nH]1 (stereo not drawn) [Compound 366] | 20 to 100 | ≥ 400 | 20 to 100 | 20 to 100 | – | – |
| Cc1nc2ccc(Oc3ccc4ncc(-c5cnn(C[C@@H]6CCN(C)C[C@H]6F)c5)nc4c3Cl)cc2[nH]1 [Compound 367] | 20 to 100 | 100 to 400 | < 20 | 20 to 100 | – | – |
| Cc1nc2ccc(Oc3ccc4ncc(-c5cnn(C[C@H]6CCN(C)C[C@H]6F)c5)nc4c3Cl)cc2[nH]1 [Compound 368] | 20 to 100 | 100 to 400 | 20 to 100 | 20 to 100 | – | – |
| Cc1nc2ccc(Oc3ccc4ncc(-c5cnn([C@H]6CCNC[C@@H]6F)c5)nc4c3Cl)cc2[nH]1 [Compound 369] | 20 to 100 | ≥ 400 | 20 to 100 | 20 to 100 | – | – |
| Cc1nc2ccc(Oc3ccc4ncc(-c5cnn(C6CCN(C)CC6)c5)nc4c3Cl)cc2[nH]1 [Compound 370] | < 20 | 100 to 400 | 20 to 100 | 20 to 100 | – | – |
| CSC1CCC(Cn2cc(-c3cnc4ccc(Oc5ccc6nc(C)[nH]c6c5)c(Cl)c4n3)cn2)CC1 (stereo not drawn) [Compound 371] | 20 to 100 | ≥ 400 | 20 to 100 | 100 to 400 | – | – |
| CCS(=O)(=O)N1CC(n2cc(-c3cnc4ccc(Oc5ccc6nc(C)[nH]c6c5)c(Cl)c4n3)cn2)C1 [Compound 372] | 20 to 100 | ≥ 400 | 20 to 100 | 20 to 100 | – | – |
| CC(=O)N1CCCC(n2cc(-c3cnc4ccc(Oc5ccc6nc(C)[nH]c6c5)c(Cl)c4n3)cn2)C1 (stereo not drawn) [Compound 373] | 20 to 100 | ≥ 400 | 20 to 100 | 20 to 100 | – | – |
| CCS(=O)(=O)N1CC(CC#N)(n2cc(-c3cnc4ccc(Oc5ccc6nc(C)[nH]c6c5)c(Cl)c4n3)cn2)C1 [Compound 374] | 20 to 100 | ≥ 400 | < 20 | 20 to 100 | – | – |
| Cc1nc2ccc(Oc3ccc4ncc(-c5cnn(CC6CCNCC6F)c5)nc4c3Cl)cc2[nH]1 (stereo not drawn) [Compound 375] | 20 to 100 | 100 to 400 | < 20 | 20 to 100 | – | – |
| Cc1nc2ccc(Oc3ccc4ncc(-c5cnn(CCC6C=CCO6)c5)nc4c3Cl)cc2[nH]1 (stereo not drawn) [Compound 376] | 20 to 100 | ≥ 400 | 20 to 100 | 20 to 100 | – | – |
